Reference: patent US20050070480A1, “Peptide arginals and methods for treating disseminated intravascular coagulation” (priority 2001, published 2005)
Like-named read-outs stand apart in the source and are kept apart here. Non-standard residues stand in square brackets, D forms with d. Residues, ends and D or L forms follow the SMILES beside them. dNMeChg = CN[C@@H](C(=O)O)C1CCCCC1; Aze = O=C(O)[C@@H]1CCN1

What was measured:
clot-bound factor Xa = clot-bound factor Xa (Homo sapiens, UniProt P00742); experiment: Enzyme inhibition in platelet-rich plasma clots, chromogenic substrate Moc-D-Chg-Gly-Arg-pNA; assay type: biochemical
Description: (§1) Tos-Gly-Pro-Arg-pNA (S1) for thrombin and Moc-D-Chg-Gly-Arg-pNA (S2) for factor Xa, as published (Bajusz, S. et al.: PCT Pub. No. WO97/46576) briefly. The assays were carried out at room temperature in glass tubes and 96-well microtiter plates.
(§2) Solutions, (i) Buffer A: 0.1 M sodium phosphate/0.05 M NaCl (pH 8.5). (ii) Inhibitors: 0.1, 1.0 and 10 mg/ml solutions in buffer A containing 0.02% human albumin. (iii) Substrates: 1 mM of S1 and 2 mM of S2 in distilled water.
(§3) (b) Preparation of plasma clots. Platelet rich plasma samples (200 μl) placed in glass tubes were incubated at room temperature with 80 μl 40 mM CaCl2 for 60 min. The clots were washed with 2 ml aliquots of saline (0.9% NaCl) with gentle agitation to remove unbound enzymes In case of successful washing the optical density of the reaction mixture of wash and S1 is less than 5% of the control. The plasma clot thus obtained was kept under saline in the tube until use.
(§4) (c) Assessment of the enzyme inhibition in the clots. After removal of saline, the plasma clot was incubated at 37° C. with 400 μl inhibitor (or buffer A as negative control) for 5 min. and with 100 μl substrate S1 or S3 for 30 min., then the reaction was stopped with 100 μl 50% acetic acid. 150 μl portions of the reaction mixtures were placed in the wells of a microtiter plate and read at 405 nm (ELISA READER 800, Bio-Tek Instruments Inc. Winooski, Vt., USA). IC50 values were generated from the extinction data graphically.

[1] = molecular target: tissue plasminogen activator (tPA) (Homo sapiens, UniProt P00750); experiment: Fibrin plate assay, tissue plasminogen activator; assay type: biochemical; settings: reduction of lysed area to 50% of control, read-out: LA50 tPA
Text: (§5) Inhibitory effects of the compounds of the invention on plasmin (PL) and plasmin generation by plasminogen (Plogen) activators, such as tissue plasminogen activator (tPA), and urokinase (UK) were examined by the fibrin plate assay. (See e.g., Bagdy, D., Barabás, E., Bajusz, S., and Széll, E., Thromb. Haemostas., 67:325-330 (1992); Barabás, E. Szell, E. and Bajusz, S, Blood Coagulation and Fibrinolysis, 4: 243 (1993)) The results are shown in Table 1, Column C. With a few exceptions the analogues are somewhat more inhibitory than Efegatran against the three fibrinolytic enzymes.

plasmin (PL) = plasmin (PL) (Homo sapiens, UniProt P00747); experiment: Fibrin plate assay, plasmin; assay type: biochemical; settings: reduction of lysed area to 50% of control, read-out: LA50 PL
Text: as §5

clot-bound thrombin = clot-bound thrombin (Homo sapiens, UniProt P00734); experiment: Enzyme inhibition in platelet-rich plasma clots, chromogenic substrate Tos-Gly-Pro-Arg-pNA; assay type: biochemical; settings: for IC50: clot-bound thrombin, platelet-rich plasma clot
Description: as §1, §2, §3, §4

citrated human plasma [2] = experiment: Prothrombin time (PT) plasma clotting assay; assay type: biochemical
Description: (§6) The inhibitory effect on plasma coagulation was evaluated in the thrombin time (TT), activated partial thromboplastin time (APTT) and prothrombin time (PT) assays by using citrated human plasma as substrate [Bagdy, D. et. al.: Thromb. Haemostas. 67, 325 (1992)]. The TT assay measures the inhibition of a single step, the coagulation of fibrinogen on the action of exogenous thrombin (final concentration 2.5 NIH U/ml). Clotting of plasma in the APTT and PT assays was induced by recalcification. Endogenous thrombin generated could theoretically be present at a final concentration as high as 50 NIH U/ml (APTT, PT). These assays detect the sum of inhibitory actions on fibrin formation and thrombin generation, which includes several proteolytic reactions mediated by either thrombin or other enzymes, e.g. fXa. Anticlotting activity is expressed in CT2, which is the concentration (nM) required to double the clotting time.

LPS-treated rats = experiment: Survival in a rat model for disseminated intravascular coagulation; assay type: in vivo; settings: for Survival rate %: rats, 30 mg/kg LPS i.v.; for Effectiveness on survival compared with reference C (in words): LPS-treated rats
[3] = tested on: endotoxin-treated rabbits; assay type: in vivo, rabbit
citrated human plasma [4] = experiment: Activated partial thromboplastin time (APTT) plasma clotting assay; assay type: biochemical
Description: as §6

urokinase (UK) = urokinase (UK) (Homo sapiens, UniProt P00749); experiment: Fibrin plate assay, urokinase; assay type: biochemical; settings: reduction of lysed area to 50% of control, urokinase, read-out: LA50 UK
Text: as §5

[5] = tested on: citrated human plasma (exogenous thrombin); experiment: Thrombin time (TT) plasma clotting assay; assay type: biochemical; settings: thrombin 2.5 NIH U/ml
Description: as §6

[6] = 0.75 mg/kg bolus + infusion, 0 hours
[7] = 0.75 mg/kg bolus + infusion, 4 hours
[8] = 0.75 mg/kg bolus + infusion, 5 hours
[9] = 0.75 mg/kg bolus + infusion, 6 hours
[10] = 0.75 mg/kg bolus + infusion, 7 hours
[11] = 0.75 mg/kg bolus + infusion, 8 hours
[12] = 1.0 mg/kg bolus + infusion, 0 hours
[13] = 1.0 mg/kg bolus + infusion, 4 hours
[14] = 1.0 mg/kg bolus + infusion, 5 hours
[15] = 1.0 mg/kg bolus + infusion, 6 hours
[16] = 1.0 mg/kg bolus + infusion, 7 hours
[17] = 1.0 mg/kg bolus + infusion, 8 hours
[18] = 1.5 mg/kg bolus + infusion, 0 hours
[19] = 1.5 mg/kg bolus + infusion, 4 hours
[20] = 1.5 mg/kg bolus + infusion, 5 hours
[21] = 1.5 mg/kg bolus + infusion, 6 hours
[22] = 1.5 mg/kg bolus + infusion, 7 hours
[23] = 1.5 mg/kg bolus + infusion, 8 hours
[24] = endotoxin-treated rabbits, 0.25 mg/kg/h infusion
[25] = endotoxin-treated rabbits, 0.5 mg/kg/h infusion
[26] = endotoxin-treated rabbits, 50 U/kg/h
[27] = endotoxin-treated rabbits, 100 U/kg/h

clot-bound factor Xa, sequence (P00742 235-488 limits assumed): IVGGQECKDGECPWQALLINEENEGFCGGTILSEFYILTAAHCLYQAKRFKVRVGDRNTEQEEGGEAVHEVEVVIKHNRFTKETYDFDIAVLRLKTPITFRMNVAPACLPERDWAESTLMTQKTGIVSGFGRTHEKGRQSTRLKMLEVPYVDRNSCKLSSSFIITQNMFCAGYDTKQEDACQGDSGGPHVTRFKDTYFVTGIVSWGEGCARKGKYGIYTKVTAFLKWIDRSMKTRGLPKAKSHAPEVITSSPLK
clot-bound factor Xa, sequence (P00742 41-179 limits assumed): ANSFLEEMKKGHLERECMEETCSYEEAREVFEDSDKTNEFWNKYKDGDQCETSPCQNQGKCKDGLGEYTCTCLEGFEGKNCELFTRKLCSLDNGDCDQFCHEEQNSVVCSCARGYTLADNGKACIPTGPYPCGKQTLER
plasmin (PL), sequence (P00747 581-810 limits assumed, species assumed): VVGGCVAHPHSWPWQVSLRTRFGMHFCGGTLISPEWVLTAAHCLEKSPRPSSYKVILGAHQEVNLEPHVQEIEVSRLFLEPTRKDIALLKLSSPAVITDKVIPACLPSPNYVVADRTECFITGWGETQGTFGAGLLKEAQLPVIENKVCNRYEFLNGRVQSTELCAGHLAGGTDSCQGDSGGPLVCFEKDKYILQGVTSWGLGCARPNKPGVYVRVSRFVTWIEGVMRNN
plasmin (PL), sequence (P00747 97-580 limits assumed, species assumed): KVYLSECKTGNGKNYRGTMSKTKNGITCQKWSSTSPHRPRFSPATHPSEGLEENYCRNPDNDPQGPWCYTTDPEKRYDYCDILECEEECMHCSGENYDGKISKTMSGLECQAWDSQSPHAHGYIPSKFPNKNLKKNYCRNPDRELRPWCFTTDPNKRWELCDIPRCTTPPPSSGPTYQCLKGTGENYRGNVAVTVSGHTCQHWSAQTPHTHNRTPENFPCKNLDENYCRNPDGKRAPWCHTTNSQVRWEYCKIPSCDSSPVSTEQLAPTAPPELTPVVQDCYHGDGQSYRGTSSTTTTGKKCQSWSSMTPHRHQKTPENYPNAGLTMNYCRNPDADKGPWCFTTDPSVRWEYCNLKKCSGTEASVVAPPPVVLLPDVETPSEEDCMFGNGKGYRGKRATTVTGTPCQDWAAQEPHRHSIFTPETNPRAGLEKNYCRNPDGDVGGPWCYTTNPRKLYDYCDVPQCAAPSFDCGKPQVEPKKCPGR
tissue plasminogen activator (tPA), sequence (P00750 36-562, species assumed): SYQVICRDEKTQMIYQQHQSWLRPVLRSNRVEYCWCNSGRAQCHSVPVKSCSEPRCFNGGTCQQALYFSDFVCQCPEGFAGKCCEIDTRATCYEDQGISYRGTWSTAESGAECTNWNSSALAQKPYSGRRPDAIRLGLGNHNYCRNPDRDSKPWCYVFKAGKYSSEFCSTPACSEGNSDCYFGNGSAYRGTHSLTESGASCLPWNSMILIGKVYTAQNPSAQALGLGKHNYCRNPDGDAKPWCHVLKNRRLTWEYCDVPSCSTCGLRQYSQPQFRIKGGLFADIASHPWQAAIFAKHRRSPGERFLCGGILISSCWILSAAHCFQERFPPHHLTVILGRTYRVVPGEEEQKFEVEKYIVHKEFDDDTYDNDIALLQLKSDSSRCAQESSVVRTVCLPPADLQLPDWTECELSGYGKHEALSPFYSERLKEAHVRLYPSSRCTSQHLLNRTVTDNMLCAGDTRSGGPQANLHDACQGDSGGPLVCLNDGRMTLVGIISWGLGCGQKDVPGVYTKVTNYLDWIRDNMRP

| Compound | IC50 (clot-bound factor Xa) [µM] | IC50 [1] [µM] | IC50 (plasmin (PL)) [µM] | IC50 (clot-bound thrombin) [µM] | CT2 PT (concentration required for doubling the clotting time) (citrated human plasma [2]) [nM] | Survival rate % (LPS-treated rats; [6]) [%] | Survival rate % (LPS-treated rats; [7]) [%] | Survival rate % (LPS-treated rats; [8]) [%] | Survival rate % (LPS-treated rats; [9]) [%] | Survival rate % (LPS-treated rats; [10]) [%] | Survival rate % (LPS-treated rats; [11]) [%] | Survival rate % (LPS-treated rats; [18]) [%] | Survival rate % (LPS-treated rats; [19]) [%] | Survival rate % (LPS-treated rats; [20]) [%] | Survival rate % (LPS-treated rats; [21]) [%] | Survival rate % (LPS-treated rats; [22]) [%] | Survival rate % (LPS-treated rats; [23]) [%] | CT2 APTT (concentration required for doubling the clotting time) (citrated human plasma [4]) [nM] | IC50 (urokinase (UK)) [µM] | CT2 TT (concentration required for doubling the clotting time) [5] [nM] | other results |
| --- | --- | --- | --- | --- | --- | --- | --- | --- | --- | --- | --- | --- | --- | --- | --- | --- | --- | --- | --- | --- | --- |
| CN[C@H](Cc1ccccc1)C(=O)N1CCC[C@H]1C(=O)N[C@H](C=O)CCCN=C(N)N [C, D-MePhe-Pro-Arg-H, reference compound] | 1 | 132 | 54 | 0.375 | 2915 | 100 | 93 | 73 | 67 | 33 | 27 | 100 | 100 | 100 | 100 | 92 | 92 | 622 | 82 | 87 | Survival rate % (LPS-treated rats; [12]): 100%; Survival rate % (LPS-treated rats; [13]): 83%; Survival rate % (LPS-treated rats; [14]): 83%; Survival rate % (LPS-treated rats; [15]): 66%; Survival rate % (LPS-treated rats; [16]): 58%; Survival rate % (LPS-treated rats; [17]): 50%; Lethality %, 2 hrs [3, 24]: 7%; Lethality no. died/treated animals, 2 hrs [3, 24]: 1/14; Lethality %, 4 hrs [3, 24]: 36%; Lethality no. died/treated animals, 4 hrs [3, 24]: 5/14; Lethality %, 2 hrs [3, 25]: 7%; Lethality no. died/treated animals, 2 hrs [3, 25]: 1/15; Lethality %, 4 hrs [3, 25]: 40%; Lethality no. died/treated animals, 4 hrs [3, 25]: 6/15 |
| CN[C@H](CC1CCCCCC1)C(=O)N1CCC[C@H]1C(=O)N[C@H](C=O)CCCNC(=N)N [Compound 2, N-methyl-D-cycloheptylalanyl-L-prolyl-L-arginine aldehyde] | 0.102 | 14 | 16 | 0.093 | 876 | 100 | 86 | 78 | 57 | 57 | 50 | 100 | 100 | 100 | 100 | 100 | 100 | 315 | 18 | 118 | Inhibition of clot-bound thrombin compared with Efegatran (in words) (clot-bound thrombin): surpass Efegatran; Effectiveness on survival compared with reference C (in words) (LPS-treated rats): more effective than reference C; Survival rate % (LPS-treated rats; [12]): 100%; Survival rate % (LPS-treated rats; [13]): 100%; Survival rate % (LPS-treated rats; [14]): 100%; Survival rate % (LPS-treated rats; [15]): 100%; Survival rate % (LPS-treated rats; [16]): 90%; Survival rate % (LPS-treated rats; [17]): 90% |
| CN[C@@H](C(=O)N1CC[C@H]1C(=O)N[C@H](C=O)CCCNC(=N)N)C1CCCCC1 [Compound 4, N-methyl-D-cyclohexylglycyl-L-azetidine-2-carbonyl-L-arginine aldehyde] (H-[dNMeChg]-[Aze]-Arg-aldehyde) | 0.457 | 12 | 32 | 0.245 | 2921 | 100 | 100 | 100 | 100 | 92 | 85 | 100 | 100 | 100 | 100 | 100 | 100 | 677 | 16 | 101 | Inhibition of clot-bound thrombin compared with Efegatran (in words) (clot-bound thrombin): surpass Efegatran; Effectiveness on survival compared with reference C (in words) (LPS-treated rats): more effective than reference C; Survival rate % (LPS-treated rats; 0.5 mg/kg bolus + infusion, 0 hours): 100%; Survival rate % (LPS-treated rats; 0.5 mg/kg bolus + infusion, 4 hours): 93%; Survival rate % (LPS-treated rats; 0.5 mg/kg bolus + infusion, 5 hours): 87%; Survival rate % (LPS-treated rats; 0.5 mg/kg bolus + infusion, 6 hours): 87%; Survival rate % (LPS-treated rats; 0.5 mg/kg bolus + infusion, 7 hours): 87%; Survival rate % (LPS-treated rats; 0.5 mg/kg bolus + infusion, 8 hours): 80% |
| N=C(N)NCCC[C@@H](C=O)NC(=O)[C@@H]1CCCN1C(=O)[C@H](O)C1CCCCCC1 [Compound C1, reference compound] | 0.2 | 74 | 83 | 0.524 | 1254 | – | – | – | – | – | – | – | – | – | – | – | – | 333 | 120 | 120 | Effect on lethality of endotoxin-treated rabbits (in words) ([3]; compared with endotoxin alone): no effect on lethality; Lethality %, 2 hrs [3, 25]: 0%; Lethality no. died/treated animals, 2 hrs [3, 25]: 0/16; Lethality %, 4 hrs [3, 25]: 31%; Lethality no. died/treated animals, 4 hrs [3, 25]: 5/16 |
| N=C(N)NCCC[C@@H](C=O)NC(=O)[C@@H]1CCCN1C(=O)C(O)CCc1ccccc1 (stereo partly drawn) [Compound C3, hPla-Pro-Arg-H] | – | – | – | – | – | – | – | – | – | – | – | – | – | – | – | – | – | – | – | – | Lethality %, 2 hrs [3, 25]: 6%; Lethality no. died/treated animals, 2 hrs [3, 25]: 1/18; Lethality %, 4 hrs [3, 25]: 56%; Lethality no. died/treated animals, 4 hrs [3, 25]: 10/18; Increase in lethality ([3]; endotoxin-treated rabbits, relative to endotoxin alone): ~1.8 fold |
| heparin | – | – | – | – | – | – | – | – | – | – | – | – | – | – | – | – | – | – | – | – | Lethality %, 2 hrs [3, 26]: 0%; Lethality no. died/treated animals, 2 hrs [3, 26]: 0/17; Lethality %, 4 hrs [3, 26]: 35%; Lethality no. died/treated animals, 4 hrs [3, 26]: 6/17; Lethality %, 2 hrs [3, 27]: 0%; Lethality no. died/treated animals, 2 hrs [3, 27]: 0/19; Lethality %, 4 hrs [3, 27]: 37%; Lethality no. died/treated animals, 4 hrs [3, 27]: 7/19 |
